Among the data in patent US8378104B2 (OSI Pharmaceuticals, LLC, priority 2010, dated 2013) are IC50 values, retold here.

The target of one assay is T1, TAK1-TAB1 fusion protein (Homo sapiens, UniProt O43318).
T1 construct: purchased Carna
T1 sequence (O43318 with tags, fused parts or gaps limits assumed): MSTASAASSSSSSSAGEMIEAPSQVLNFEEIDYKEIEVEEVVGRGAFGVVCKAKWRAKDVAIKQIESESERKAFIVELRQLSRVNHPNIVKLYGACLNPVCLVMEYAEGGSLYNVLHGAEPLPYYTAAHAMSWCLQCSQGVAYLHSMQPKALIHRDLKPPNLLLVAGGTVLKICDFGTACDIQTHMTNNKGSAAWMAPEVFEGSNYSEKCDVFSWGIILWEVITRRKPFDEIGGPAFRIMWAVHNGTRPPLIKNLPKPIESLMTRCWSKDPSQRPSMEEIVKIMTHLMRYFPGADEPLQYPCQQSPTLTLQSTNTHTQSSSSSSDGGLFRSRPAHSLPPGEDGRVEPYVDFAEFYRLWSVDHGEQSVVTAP
Description: TAK1 biochemical assay (AlphaScreen, GST-MAP2K7 substrate). Particulars: TAK1-TAB1 fusion protein, GST-MAP2K7 substrate; read-out: mean TAK1 IC50 (Col. A).

In another assay the test system is p-p38 in HCT-116 cells. In words: Phospho-p38 Meso Scale ELISA assay, TNFα-stimulated HCT-116 cells. It is filed as cell-based. Particulars: Homo sapiens, read-out: mean HCT-116 p-p38 ELISA IC50 (Col. C). Here is the method: Detailed below are ELISA assays for pJNK and p38, and a TAK1 biochemical assay. […] In Table 1, Col.
• 1. Plate HCT-116 cells at 25,000 per well in 100 uL in 96 well clear dishes in normal growth medium. Day 2: • 1. Aspirate medium and replace with 90 μl reduced serum growth medium (1% FCS), incubate for 2 hours at 37° C. • 2. Make drugs at 10× in reduced serum medium and add 10 uL per well. • 3. Incubate at 37° C. for 4 hrs. • 4. Bring capture plates to room temperature. • 5. Block with 150 μl Blocking Solution (provided with kit) (600 mg Blocker A into 20 mL 1× Wash Buffer per plate) at room temperature with shaking. • 6. Wash plates 4× with 200 μl 1× wash buffer (10× provided with kit) before transferring lysates. • 7. Dilute TNFα to […] in reduced serum medium (this makes a 10× working stock). • 8. Add 10 μl TNFα to all wells except negative control wells, final concentration is 10 ng/mL. • 9. Incubate at 37° C. for 10 minutes. • 10. Remove medium by flicking into sink • 11. Wash cells with 100 uL ice cold PBS. • 12. Remove PBS by flicking into sink and patting on paper towels. • 13. Lyse cells in 50 μl ice cold 1× Complete Lysis Buffer plus Phosphatase and Protease inhibitors (all provided with kit) (10 mL Tris Lysis Buffer+200 μl Protease inhibitor solution+100 μl Phosphatase inhibitor I+100 μl Phosphatase inhibitor II). • 14. Incubate with shaking at 4° C. for 30 minutes. • 15. Transfer 45 μl to capture plate, cover with adhesive cover, and incubate at 4° C. over night with shaking. • Day 3: • 1. Wash plates 4× with 200 μl 1× wash buffer (10× provided with kit). • 2. […] Incubate at room temperature with shaking for 1 hour. • 4. Wash 4× with 200 μl 1× Wash Buffer. • 5. […] Read on Sector Imager. Phospho-p38 Meso Scale ELISA Assay Day 1: • 1. Plate HCT-116 cells at 25,000 per well in 100 uL in 96 well clear dishes in normal growth medium. zday 2: • 1. Aspirate medium and replace with 90 μl reduced serum growth medium (1% FCS), incubate for 2 hours at 37° C. • 2. Make drugs at 10× in reduced serum medium and add 10 uL per well. • 3. Incubate at 37° C. for 4 hrs. • 4. Bring capture plates to room temperature. • 5. Block with 150 μl Blocking Solution (provided with kit) (600 mg Blocker A into 20 mL 1× Wash Buffer per plate) at room temperature with shaking. • 6. Wash plates 4× with 200 μl 1× wash buffer (10× provided with kit) before transferring lysates. • 7. Dilute TNFα to […] in reduced serum medium (this makes a 10× working stock). • 8. Add 10 μl TNFα to all wells except negative control wells, final concentration is 10 ng/mL. • 9. Incubate at 37° C. for 10 minutes. • 10. Remove medium by flicking into sink • 11. Wash cells with 100 uL ice cold PBS. • 12. Remove PBS by flicking into sink and patting on paper towels. • 13. Lyse cells in 50 μl ice cold 1× Complete Lysis Buffer plus phosphatase and protease inhibitors (all provided with kit) (10 mL Tris Lysis Buffer+200 μl Protease inhibitor solution+100 μl Phosphatase inhibitor I+100 μl Phosphatase inhibitor II). • 14. Incubate with shaking at 4° C. for 30 minutes. • 15. Dilute lysates before transferring to capture plate with 100 μl Complete p38 Lysate • Dilution Buffer (provided with kit) (10 mL of Diluent 20±200 μl Protease inhibitor solution+100 μl Phosphatase inhibitor I+100 μl Phosphatase inhibitor II). • 16. Transfer 50 μl of diluted lysates to capture plate, cover with adhesive cover, and incubate at 4° C. over night with shaking. Day 3: • 1. Wash plates 4× with 200 μl 1× wash buffer (10× provided with kit). • 2. […] Incubate at room temperature with shaking for 1 hour. • 4. Wash 4× with 200 μl 1× Wash Buffer. • 5. […] Read on Sector Imager. TAK1 Biochemical Assay

Another assay concerns pJNK in HCT-116 cells. In words: Phospho-JNK (Thr183/Tyr185) Meso Scale ELISA assay, TNFα-stimulated HCT-116 cells. It is filed as cell-based. Particulars: Homo sapiens, read-out: mean HCT-116 pJNK ELISA IC50 (Col. B). In short, it runs like this: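 Meso Scale ELISA read of phospho-JNK (Thr183/Tyr185) in lysed HCT-116 cells. Cells were serum-reduced to 1% FCS for 2 hours, exposed to test drug for 4 hrs at 37° C, then given 10 ng/mL TNFα (final) for 10 minutes before lysis.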

Where a name gives a salt, the structure may show the parent alone. Some results are limits rather than exact numbers.

As to `CC(=O)N1CCC(n2cc(-c3cnc(N)c4oc(-c5cnc6[nH]ccc6c5)cc34)cn2)CC1` [Example 155, 1-(4-{4-[7-amino-2-(1H-pyrrolo[2,3-b]pyridin-5-yl)furo[2,3-c]pyridin-4-yl]-1H-pyrazol-1-yl}piperidin-1-yl)ethanone], the 50% inhibitory concentration (IC50) lay within 100 to 1000 nM at TAK1-TAB1 fusion protein, 1000 to 10000 nM in the assay on p-p38 in HCT-116 cells and 100 to 1000 nM in the assay on pJNK in HCT-116 cells.
For `Nc1ncc(-c2cnn([C@H]3CC[C@H](O)CC3)c2)c2cc(-c3ccc(F)c4cnsc34)oc12` [Example 230, trans-4-{4-[7-amino-2-(4-fluoro-1,2-benzothiazol-7-yl)furo[2,3-c]pyridin-4-yl]-1H-pyrazol-1-yl}cyclohexanol diformate salt], the half-maximal inhibitory concentration (IC50) on TAK1-TAB1 fusion protein, with p-p38 in HCT-116 cells and with pJNK in HCT-116 cells was 100 to 1000 nM in each case.
In the case of `Cc1nn(CC(O)CO)c(C)c1-c1cnc(N)c2oc(-c3cccc4cnccc34)cc12` (stereo not drawn) [Example 400, 3-{4-[7-amino-2-(isoquinolin-5-yl)furo[2,3-c]pyridin-4-yl]-3,5-dimethyl-1H-pyrazol-1-yl}propane-1,2-diol], the IC50 at TAK1-TAB1 fusion protein was greater than 10000 nM; in the assay on p-p38 in HCT-116 cells, 1000 to 10000 nM; with pJNK in HCT-116 cells, 1000 to 10000 nM.
For `Nc1ncc(-c2cnn(C3CCNCC3)c2)c2cc(-c3csc4cnccc34)oc12` [Example 322, 4-(1-piperidin-4-yl-1H-pyrazol-4-yl)-2-thieno[2,3-c]pyridin-3-yl-furo[2,3-c]pyridin-7-ylamine], the values for the IC50 on TAK1-TAB1 fusion protein, in the assay on p-p38 in HCT-116 cells and in the assay with pJNK in HCT-116 cells were less than 100 nM, 100 to 1000 nM and 100 to 1000 nM, respectively.
`CC(=O)N1CCC(n2cc(-c3cnc(N)c4oc(-c5cccc6nnsc56)cc34)cn2)CC1` [Example 224, 1-(4-{4-[7-amino-2-(1,2,3-benzothiadiazol-7-yl)furo[2,3-c]pyridin-4-yl]-1H-pyrazol-1-yl}piperidin-1-yl)ethanone diformate salt]: the IC50 on TAK1-TAB1 fusion protein, with p-p38 in HCT-116 cells and with pJNK in HCT-116 cells was less than 100 nM each time.
`COc1cc2c(-c3cc4c(-c5cnn(C6CCN(C(C)=O)CC6)c5)cnc(N)c4o3)csc2cn1` [Example 243, 1-(4-{4-[7-amino-2-(5-methoxythieno[2,3-c]pyridin-3-yl)furo[2,3-c]pyridin-4-yl]-1H-pyrazol-1-yl}piperidin-1-yl)ethanone]: the values for the concentration for half-maximal inhibition (IC50) on TAK1-TAB1 fusion protein, in the assay on p-p38 in HCT-116 cells and in the assay on pJNK in HCT-116 cells were 1000 to 10000 nM, 1000 to 10000 nM and 100 to 1000 nM, respectively.
As to `C[C@]1(O)CC[C@@H](n2cc(-c3cnc(N)c4oc(-c5cccc6cnccc56)cc34)cn2)CC1` [Example 76, cis-4-{4-[7-amino-2-(isoquinolin-5-yl)furo[2,3-c]pyridin-4-yl]-1H-pyrazol-1-yl}-1-methylcyclohexanol], the IC50 on TAK1-TAB1 fusion protein, with p-p38 in HCT-116 cells and in the assay on pJNK in HCT-116 cells was 100 to 1000 nM throughout.
As for `CC(=O)N1CCC(n2cc(-c3cnc(N)c4oc(-c5cccc([N+](=O)[O-])c5C)cc34)cn2)CC1` [Example 218, 1-(4-{4-[7-amino-2-(2-methyl-3-nitrophenyl)furo[2,3-c]pyridin-4-yl]-1H-pyrazol-1-yl}piperidin-1-yl)ethanone], the 50% inhibitory concentration (IC50) at TAK1-TAB1 fusion protein is less than 100 nM; in the assay on p-p38 in HCT-116 cells, 100 to 1000 nM; with pJNK in HCT-116 cells it was 100 to 1000 nM.
Take `CC(=O)N1CCC(n2cc(-c3cnc(N)c4oc(-c5ccsc5)cc34)cn2)CC1` [Example 174, 1-(4-{4-[7-amino-2-(thiophen-3-yl)furo[2,3-c]pyridin-4-yl]-1H-pyrazol-1-yl}piperidin-1-yl)ethanone]: the IC50 at TAK1-TAB1 fusion protein fell in the range of 100 to 1000 nM; with p-p38 in HCT-116 cells it was 1000 to 10000 nM; in the assay with pJNK in HCT-116 cells, 1000 to 10000 nM.
Consider `CC(=O)N1CCC(n2cc(-c3cnc(N)c4oc(-c5scc6c5OCCO6)cc34)cn2)CC1` [Example 109, 1-(4-{4-[7-amino-2-(2,3-dihydrothieno[3,4-b][1,4]dioxin-5-yl)furo[2,3-c]pyridin-4-yl]-1H-pyrazol-1-yl}piperidin-1-yl)ethanone], for which the figures for the half-inhibitory concentration (IC50) on TAK1-TAB1 fusion protein, with p-p38 in HCT-116 cells and in the assay with pJNK in HCT-116 cells were 100 to 1000 nM, 1000 to 10000 nM and 100 to 1000 nM, respectively.
For the molecule `CC(=O)N1CCC(n2cc(-c3cnc(N)c4oc(-c5ccc(S(C)(=O)=O)cc5)cc34)cn2)CC1` [Example 129, 1-[4-(4-{7-amino-2-[4-(methylsulfonyl)phenyl]furo[2,3-c]pyridin-4-yl}-1H-pyrazol-1-yl)piperidin-1-yl]ethanone], the IC50 at TAK1-TAB1 fusion protein, in the assay with p-p38 in HCT-116 cells and in the assay with pJNK in HCT-116 cells was greater than 10000 nM throughout.
As for `CC(=O)N1CCC(n2cc(-c3cnc(N)c4oc(-c5cnn(Cc6cccnc6)c5)cc34)cn2)CC1` [Example 148, 1-[4-(4-{7-amino-2-[1-(pyridin-3-ylmethyl)-1H-pyrazol-4-yl]furo[2,3-c]pyridin-4-yl}-1H-pyrazol-1-yl)piperidin-1-yl]ethanone], the results for the IC50 on TAK1-TAB1 fusion protein, in the assay with p-p38 in HCT-116 cells and with pJNK in HCT-116 cells were 1000 to 10000 nM, greater than 10000 nM and greater than 10000 nM, respectively.
On to `Nc1ncc(-c2cn[nH]c2)c2cc(-c3c[nH]c4cnccc34)oc12` [Example 87, 4-(1H-pyrazol-4-yl)-2-(1H-pyrrolo[2,3-c]pyridin-3-yl)furo[2,3-c]pyridin-7-amine trifluoroacetic acid salt], for which the IC50 on TAK1-TAB1 fusion protein is less than 100 nM; with p-p38 in HCT-116 cells it was 1000 to 10000 nM; with pJNK in HCT-116 cells, 100 to 1000 nM.
Taken in the same sequence, the figures for `CC(=O)N1CCC(n2cc(-c3cnc(N)c4oc(-c5cccc(OCC#N)c5)cc34)cn2)CC1` [Example 205, (3-{4-[1-(1-acetylpiperidin-4-yl)-1H-pyrazol-4-yl]-7-aminofuro[2,3-c]pyridin-2-yl}phenoxy)acetonitrile] were 100 to 1000 nM, 100 to 1000 nM and 100 to 1000 nM.
On to `CC(C)n1cc(-c2cnc(N)c3oc(-c4c[nH]c5cnccc45)cc23)cn1` [Example 90, 4-[1-(propan-2-yl)-1H-pyrazol-4-yl]-2-(1H-pyrrolo[2,3-c]pyridin-3-yl)furo[2,3-c]pyridin-7-amine], for which the results for the half-inhibitory concentration (IC50) on TAK1-TAB1 fusion protein, with p-p38 in HCT-116 cells and with pJNK in HCT-116 cells were less than 100 nM, less than 100 nM and 100 to 1000 nM, respectively.
As for `CS(=O)(=O)CCN1CCC(n2cc(-c3cnc(N)c4oc(-c5cccc6cnccc56)cc34)cn2)CC1` [Example 82, 2-(isoquinolin-5-yl)-4-(1-{1-[2-(methylsulfonyl)ethyl]piperidin-4-yl}-1H-pyrazol-4-yl)furo[2,3-c]pyridin-7-amine], the half-maximal inhibitory concentration (IC50) on TAK1-TAB1 fusion protein, in the assay with p-p38 in HCT-116 cells and in the assay with pJNK in HCT-116 cells was 100 to 1000 nM each time.
